Measured values: the supplement of paper PMC10331698
± gives the standard deviation of the averaged measurements.

How the values were obtained:
Assay in all cases: level (log10 ratio to DMSO vehicle control); higher = higher biomarker level / cell amount than vehicle control
Octafluoroadipic acid = compound: O=C(O)C(F)(F)C(F)(F)C(F)(F)C(F)(F)C(=O)O [Octafluoroadipic acid] (in DMSO)
Description: (§1)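 BioMAP Diversity Plus panel of 12 human primary cell co-culture systems (3C, 4H, LPS, SAg, BT, BF4T, BE3C, CASM3C, HDF3CGF, KF3CT, MyoF, Mphg). Compounds were added 1 h before stimulation and left for 24 h (MyoF 48 h; BT 72 h for soluble read-outs or 6 d for IgG). Biomarkers were read by ELISA, cytotoxicity by SRB, PBMC viability and proliferation by Alamar Blue. Each well value was divided by the mean of 8 DMSO control wells on the same plate and log10 transformed; duplicate blinded samples were tested at 4 concentrations.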

[1] = compound: NS(=O)(=O)C(F)(F)C(F)(F)C(F)(F)C(F)(F)C(F)(F)C(F)(F)C(F)(F)C(F)(F)F [Perfluorooctanesulfonamide] (in DMSO)
Description: as §1

[2] = compound: OCC(F)(F)C(F)(F)C(F)(F)C(F)F [1H,1H,5H-Perfluoropentanol] (in DMSO)
Description: as §1

[3] = compound: C[C@@H]1C[C@H]2[C@@H]3CCC4=CC(=O)C=C[C@]4(C)[C@@]3(F)[C@@H](O)C[C@]2(C)[C@@]1(O)C(=O)COP(=O)(O)O [Dexamethasone sodium phosphate] (in DMSO)
Description: as §1

[4] = compound: O=S(=O)(O)C(F)(F)C(F)(F)C(F)(F)C(F)(F)C(F)(F)C(F)(F)C(F)(F)F [Perfluoroheptanesulfonic acid] (in DMSO)
Description: as §1

[5] = compound: C=C(C)C(=O)OCCC(F)(F)C(F)(F)C(F)(F)C(F)(F)C(F)(F)C(F)(F)C(F)(F)C(F)(F)F [8:2 Fluorotelomer methacrylate] (in DMSO)
Description: as §1

Test System | level (log10) (Octafluoroadipic acid; 6700 nM) | level (log10) (Octafluoroadipic acid; 20000 nM) | level (log10) (Octafluoroadipic acid; 60000 nM) | level (log10) ([1]; 6700 nM) | level (log10) ([1]; 20000 nM) | level (log10) ([2]; 6700 nM) | level (log10) ([2]; 20000 nM) | level (log10) ([2]; 60000 nM) | level (log10) ([3]; 1500 nM) | level (log10) ([3]; 4400 nM) | level (log10) ([3]; 13000 nM) | level (log10) ([3]; 40000 nM) | level (log10) ([4]; 1500 nM) | level (log10) ([4]; 4400 nM) | level (log10) ([4]; 13000 nM) | level (log10) ([4]; 40000 nM) | level (log10) ([5]; 6700 nM) | level (log10) ([5]; 20000 nM)
BF4T:MMP-9 | -0.0075 ± 0.047 | -0.0065 ± 0.036 | 0.0165 ± 0.026 | -0.006 ± 0.025 | -0.113 ± 0.018 | -0.001 ± 0.0085 | 0.0065 ± 0.019 | 0.0035 ± 0.013 | 0.051 ± 0.041 | 0.026 ± 0.037 | 0.0035 ± 0.046 | 0.0225 ± 0.063 | 0.0155 ± 0.08 | -0.031 ± 0.033 | -0.0335 ± 0.054 | -0.003 ± 0.041 | -0.002 ± 0.059 | 0.026 ± 0.061
BF4T:PAI-I | -0.0045 ± 0.026 | -0.011 ± 0.013 | 0.007 ± 0.0071 | -0.004 ± 0.011 | -0.038 ± 0.0099 | 0.01 ± 0.0085 | 0.0095 ± 0.018 | 0.0215 ± 0.026 | -0.0005 ± 0.022 | 0.01 ± 0.013 | 0.001 ± 0.018 | 0.0085 ± 0.0021 | 0.0205 ± 0.00071 | 0.01 | -0.0225 ± 0.011 | -0.0075 ± 0.025 | -0.0075 ± 0.0092 | 0.0055 ± 0.012
BF4T:SRB | -0.0145 ± 0.0064 | -0.011 ± 0.0071 | -0.0065 ± 0.0035 | -0.009 ± 0.0028 | -0.052 | -0.0055 ± 0.0021 | 0.001 ± 0.0085 | 0.002 ± 0.0014 | 0.0155 ± 0.0078 | 0.0005 ± 0.0064 | 0.01 ± 0.013 | 0.0135 ± 0.016 | 0.0075 ± 0.018 | -0.008 ± 0.0014 | -0.0125 ± 0.0021 | -0.016 ± 0.021 | -0.0045 ± 0.0035 | -0.0005 ± 0.00071
BF4T:tPA | -0.007 ± 0.0014 | -0.0065 ± 0.025 | 0.0035 ± 0.005 | -0.059 ± 0.013 | 0.006 ± 0.02 | -0.009 ± 0.028 | 0.0335 ± 0.022 | 0.04 ± 0.058 | 0.0375 ± 0.05 | 0.01 ± 0.034 | 0.0145 ± 0.016 | 0.027 ± 0.021 | 0.0235 ± 0.052 | -0.0065 ± 0.0064 | -0.0165 ± 0.025 | 0.0225 ± 0.039 | -0.027 ± 0.0028 | -0.017 ± 0.0057
BF4T:uPA | -0.0115 ± 0.023 | -0.0175 ± 0.03 | -0.003 | 0.014 ± 0.016 | 0.005 ± 0.034 | -0.0215 ± 0.032 | 0.023 ± 0.016 | 0.013 ± 0.02 | 0.006 ± 0.025 | -0.013 ± 0.045 | -0.002 ± 0.013 | -0.002 ± 0.0028 | 0.001 ± 0.018 | -0.0035 ± 0.012 | -0.017 ± 0.0014 | 0.0095 ± 0.0064 | -0.013 ± 0.013 | 0.009 ± 0.0014
BT:B cell Proliferation | -0.014 ± 0.0028 | -0.023 ± 0.016 | 0.005 ± 0.031 | 0.0205 ± 0.0064 | 0.024 ± 0.028 | -0.016 ± 0.0042 | 0.0015 ± 0.046 | 0.0065 ± 0.057 | -0.0145 ± 0.011 | 0.005 ± 0.013 | -0.0245 ± 0.019 | -0.0025 ± 0.015 | 0.031 ± 0.041 | 0.0315 ± 0.057 | -0.0185 ± 0.021 | 0.0115 ± 0.053 | -0.025 ± 0.018 | 0.037 ± 0.033
BT:PBMC Cytotoxicity | -0.0015 ± 0.029 | 0.001 ± 0.0014 | 0.0025 ± 0.019 | 0.0175 ± 0.0064 | 0.03 ± 0.0099 | -0.0275 ± 0.013 | -0.038 ± 0.045 | -0.019 ± 0.042 | -0.0915 ± 0.00071 | -0.102 ± 0.028 | -0.107 ± 0.0064 | -0.0975 ± 0.039 | -0.0045 ± 0.021 | -0.009 ± 0.011 | -0.0015 ± 0.013 | 0.0145 ± 0.054 | -0.0005 ± 0.0021 | 0.016 ± 0.058
BT:Secreted IgG | 0.0285 ± 0.033 | 0.028 ± 0.027 | 0.0435 ± 0.011 | -0.018 ± 0.0085 | -0.141 ± 0.1 | 0.044 ± 0.02 | 0.0295 ± 0.039 | 0.0475 ± 0.028 | 0.024 ± 0.0085 | 0.002 | 0.034 ± 0.011 | 0.0025 ± 0.036 | 0.0285 ± 0.0021 | 0.0265 ± 0.0064 | -0.006 ± 0.033 | 0.002 ± 0.045 | 0.0175 ± 0.012 | 0.028 ± 0.0085
BT:sIL-2 | -0.006 ± 0.15 | -0.012 ± 0.021 | -0.0495 ± 0.061 | -0.0115 ± 0.049 | 0.0005 ± 0.028 | -0.0095 ± 0.066 | -0.0245 ± 0.0078 | 0.0145 ± 0.059 | -0.442 ± 0.033 | -0.451 ± 0.12 | -0.458 ± 0.039 | -0.456 ± 0.032 | -0.0445 ± 0.037 | 0.0215 ± 0.039 | -0.0005 ± 0.013 | -0.0565 ± 0.036 | -0.006 ± 0.024 | -0.04 ± 0.064
BT:sIL-6 | 0.013 ± 0.083 | 0.021 ± 0.016 | -0.102 ± 0.14 | -0.0455 ± 0.023 | -0.0485 ± 0.026 | 0.0265 ± 0.005 | 0.0175 ± 0.015 | 0.003 ± 0.014 | -0.2605 ± 0.0021 | -0.281 ± 0.07 | -0.3065 ± 0.0021 | -0.33 ± 0.061 | 0.004 ± 0.013 | 0.03 ± 0.013 | -0.027 ± 0.011 | -0.139 ± 0.057 | 0.0115 ± 0.042 | -0.0085 ± 0.11
BT:sIL-17A | -0.0875 ± 0.044 | 0.0075 ± 0.064 | 0.128 ± 0.092 | -0.0315 ± 0.16 | 0.0435 ± 0.052 | -0.0225 ± 0.086 | 0.044 | -0.0225 ± 0.25 | -0.776 ± 0.019 | -0.55 ± 0.03 | -0.652 ± 0.057 | -0.717 ± 0.042 | 0.0335 ± 0.076 | 0.113 ± 0.035 | 0.026 ± 0.14 | -0.078 ± 0.058 | 0.077 ± 0.13 | 0.041 ± 0.16
BT:sIL-17F | -0.027 ± 0.0028 | -0.009 ± 0.078 | 0.0275 ± 0.076 | -0.0365 ± 0.084 | -0.0785 ± 0.11 | -0.0035 ± 0.067 | -0.051 ± 0.035 | -0.013 ± 0.25 | -0.259 ± 0.0099 | -0.251 ± 0.058 | -0.262 ± 0.012 | -0.239 ± 0.047 | -0.0155 ± 0.096 | 0.0185 ± 0.025 | 0.0535 ± 0.064 | -0.004 ± 0.067 | 0.032 ± 0.037 | 0.1 ± 0.023
BT:sTNF-alpha | 0.0535 ± 0.17 | 0.028 ± 0.17 | 0.116 ± 0.02 | -0.045 ± 0.13 | -0.11 ± 0.15 | -0.0315 ± 0.0092 | -0.051 ± 0.016 | -0.003 ± 0.068 | -0.575 ± 0.0078 | -0.553 ± 0.0099 | -0.525 ± 0.13 | -0.566 ± 0.13 | -0.022 ± 0.018 | -0.043 ± 0.0042 | -0.048 ± 0.014 | -0.101 ± 0.0099 | -0.031 ± 0.055 | -0.049 ± 0.0042
LPS:CCL2/MCP-1 | -0.0015 ± 0.044 | -0.0045 ± 0.026 | 0.0205 ± 0.0078 | -0.0035 ± 0.013 | 0.0165 ± 0.0021 | -0.006 ± 0.0071 | 0.004 ± 0.014 | 0.007 ± 0.04 | 0.023 ± 0.011 | -0.0045 ± 0.012 | -0.013 ± 0.0071 | -0.0105 ± 0.088 | 0.0045 ± 0.037 | -0.0455 ± 0.026 | -0.005 ± 0.042 | 0.014 ± 0.1 | -0.0045 ± 0.047 | 0.042 ± 0.0085
LPS:CD40 | -0.0035 ± 0.04 | -0.005 ± 0.0071 | -0.0245 ± 0.0064 | -0.0635 ± 0.018 | -0.115 ± 0.0042 | -0.017 ± 0.016 | -0.0085 ± 0.005 | 0.0145 ± 0.015 | 0.0175 ± 0.054 | -0.035 ± 0.03 | -0.012 ± 0.037 | -0.0635 ± 0.019 | 0.035 ± 0.075 | 0.029 ± 0.096 | 0.0625 ± 0.1 | 0.001 ± 0.14 | 0.0345 ± 0.0092 | -0.028 ± 0.11
LPS:CD62E/E-Selectin | 0.002 ± 0.023 | -0.008 ± 0.0057 | 0.0085 ± 0.022 | -0.015 ± 0.023 | 0.018 ± 0.016 | -0.0165 ± 0.00071 | 0.0125 ± 0.0064 | 0.0055 ± 0.022 | 0 ± 0.0014 | -0.015 ± 0.0014 | -0.0105 ± 0.00071 | -0.0115 ± 0.005 | 0.0155 ± 0.015 | -0.0065 ± 0.0035 | -0.0075 ± 0.026 | 0.0095 ± 0.042 | 0.028 ± 0.0014 | 0.027 ± 0.035
